Two molecules from US6627603B1, “Method for releasing an active principle contained a multiple emulsion” (Centre National de la Recherche Scientifiquue (C.N.R.S.), priority 1997, dated 2003) can be followed below.

Structures are written as SMILES.

Format in all cases: physicochemical
The nature of series [1]: Transfer of inverse-emulsion water droplets to an aqueous surfactant phase, detected by AgCl precipitate. How it is done:
In a first step, a monodisperse water-in-dodecane inverse emulsion which is stabilized with Span 80® (sorbitan monooleate from the company Sigma) is prepared. This emulsion is prepared by slowing introducing the disperse aqueous phase (80% by volume) with gentle shearing (of the order of 1000 s^−1) into a continuous phase composed of a dodecane/Span 80 mixture in a 1/1 ratio by weight. Sodium chloride NaCl (0.1M), intended to simulate the presence of the active principle in the aqueous phase A1, is added. Advantageously, it has been shown that the presence of this salt reinforces the stability of the inverse emulsion Ei (Aronson M. P., Petko M. F., J. Colloid Interface Sci., 1993, 159, 134). The initial polydisperse emulsion is converted by a fractional crystallisation technique (Bibette J., J. Colloid Interface Sci., 1991, 147, 474) into a monodisperse emulsion.
Several multiple emulsions were subsequently prepared from this inverse emulsion by mixing it with an aqueous solution comprising sodium dodecyl sulphate (SDS, HLB=40) at various concentrations below or greater than its critical micelle concentration, which is 8×10^−3 mol/l.
The test consists in carefully bringing together (over an area of 1 cm^2) equivalent volumes (1 cm^3) of the inverse emulsion and of water comprising variable amounts of SDS surfactant and a concentration of AgNO3 at a concentration of 10^−3 mol/l. The transfer of the water present in the inverse droplets to the macroscopic aqueous phase is detected by observation of an AgCl precipitate which is formed at the macroscopic interface when the internal contents transfer to the external phase. This is because, when the water droplets move via a coalescence phenomenon from the upper inverse emulsion to the lower aqueous phase, the upper phase gradually becomes transparent whereas the lower phase gradually becomes milky.
Above this limit concentration, the water droplets quickly transfer (in less than 48 hours) within the second phase. […]

Series [2] in a line: Characteristic release time by phase-contrast optical microscopy. To be noted: assessed visually using a microscope. How it is done:
Various emulsions are prepared according to the procedure defined in Example No. 1. The concentration of the surface-active agent (SDS) present in the external aqueous phase is varied and the change over time of the double emulsion is observed with a phase-contrast optical microscope (Zeiss Axiovert 100). The curve in FIG. 2 describes the change in the characteristic release time as a function of the concentration of surface-active agent present in the external aqueous phase. The characteristic release time is defined as the time at the end of which virtually all the droplets of phase A1 have been released into the external aqueous phase A2 (by coalescence). As indicated, this time is assessed visually using a microscope. It will be noted that the release time changes from several days, when the concentration is less than 10 CMC, to only a few hours, when the concentration is equal to 40 CMC.

A short description of series [3]: Potentiometric determination of salt (KCl) release from a monodisperse double emulsion. How it is done:
A monodisperse water-in-dodecane inverse emulsion which is stabilized with Span 80 is prepared.
The aqueous phase (80% by volume) is introduced with gentle shearing (of the order of 1000 s^−1) into a continuous phase composed of a dodecane/Span mixture (1:1 by mass). The aqueous phase comprises 1 mol per liter of potassium chloride. This salt acts as active substance which has to be released. The initial polydisperse emulsion is converted by a fractional crystallisation technique, so as to obtain a monodisperse emulsion (Bibette J., J. Colloid Interface Sci., 1991, 147, 474).
The preceding inverse emulsion is emulsified in its turn in an aqueous phase comprising a hydrophilic surface active agent (SDS). A double emulsion is thus obtained composed of oily globules comprising water droplets, which droplets result from the first stage.
The double emulsion is manufactured using a microfluidizer (Jet homogenizer from Labplant). This method consists in bringing the disperse phase and the continuous phase into contact under very high pressure and in then injecting the mixture via a hole with a small diameter (0.1 mm).
The concentration of the KCl initially incorporated in the internal aqueous phase of the double emulsion is measured in the external aqueous phase by potentiometry.
The potentiometric quantitative determination is based on the measurement of a difference in potential between an indicator electrode (Ag/AgCl) and a reference electrode (mercurous sulphate electrode) which are immersed in the colloidal solution comprising the electrolyte to be quantitatively determined (Cl^− ion). The concentration of the Cl^− ion is in this case directly related to the potential ΔE of the Ag/AgCl electrode by a relationship of the type:
ΔE=β+α log Cq (Nernst relationship).
It is then possible, via a calibration line, to know at any moment the concentration of Cl^− ion released into the external aqueous phase.
The results obtained are presented in graphical form in FIG. 1. […]

A short description of series [4]: Stability of the multiple emulsion versus surfactant concentration in the external phase (microscope). The procedure:
In this test, a multiple emulsion is prepared by dispersing the inverse emulsion in a continuous aqueous phase comprising the SDS surfactant at a concentration equal to one tenth of its critical micelle concentration. The inverse phase is the same as that described above in Example 1: the fraction by volume of water drops is present therein at a concentration of 10% by volume with 0.1 mol/l of NaCl for a concentration of surfactant of 2%. The multiple emulsion is therefore composed of 90% by volume of an external aqueous phase and of 10% of the inverse phase. A high degree of shearing, of the order of 10,000 revolutions per minute, is applied using an Ultra-turrax device for 10 seconds to a total volume of […] of the overall composition, which results in the appearance of double drops in which the water content and the size of the droplets are retained.
Double drops are observed, with each of them comprising small inverse water drops.
This test is repeated, the concentration of the surfactant within the external aqueous phase Ce being varied and the double emulsion being freshly prepared, and the duration of existence of the internal water droplets is recorded. […] This transition takes place for exactly the same concentration as that mentioned in Example 1, that is to say approximately 10 CMC. […] It is thus observed, under a microscope, that only phenomena of coalescence between the tiny inverse water drops and the interface of the direct drops are responsible for the change which is observed.
Only a gradual decrease in the concentration of internal droplets is observed.

A short description of series [5]: Multiple emulsions with Tween 80 in aqueous phase A2: transfer of internal water droplets. Conditions: Tween 80 as surfactant in aqueous phase A2. How it is done:
Multiple emulsions are prepared according to the procedure described in the preceding examples by using Tween 80 in the aqueous phase A2 as surfactant. Its HLB is 15 and its critical micelle concentration is […]. The same type of result is observed. Transfer of the internal water droplets is also dependent on the concentration Ce of the surfactant in the external phase. In this case, the limit concentration is approximately 200 CMC.
It is observed for this surfactant that the internal water droplets coalesce with one another. This instability appears rapidly and results in a few internal water drops with a greater surface area, still imprisoned in the oily globules.

As for `CCCCCCCCCCCCOS(=O)(=O)[O-].[Na+]` [SDS, sodium dodecyl sulphate], the “time for transfer of the water droplets within the second phase” value in series [1] (above the limit concentration (approximately 10 CMC)) is “less than 48 hours”. In series [1] (same test with gentle centrifuging for 15 minutes), the “concentration at which transfer via coalescence takes place” value was found to be 10 CMC. The “limit concentration of surfactant below which the water droplets do not transfer to the second phase” value in series [1] (water-in-dodecane inverse emulsion (Span 80, NaCl 0.1M) on water with AgNO3 10^−3 mol/l, no transfer even for several days below the limit) is “approximately 10 CMC”. Further, the characteristic release time result is “a few hours” in series [2] (SDS concentration equal to 40 CMC) and “several days” in series [2] (SDS concentration less than 10 CMC). In addition, in series [3] (KCl double emulsion, globules 4 μm, droplets 0.3 μm), the concentration threshold was 10 CMC. Further, the “time corresponding to complete release of the salt” value in series [3] (SDS concentration greater or equal to 10 CMC, KCl 1 mol per liter in internal phase, release by coalescence) is listed as “less than 500 minutes”. In series [3] (SDS concentration less than 10 CMC, passive diffusion, emulsion retains its double nature), the “release of the salt into the external aqueous phase” value is listed as “very slow”. Also, the “coalescence between the big double globules” value in series [4] (SDS at one tenth of its CMC in external phase, after storage for two months) was “No phenomenon of coalescence”. For the same molecule, the “period of time for conversion into a direct emulsion” value in series [4] (SDS concentration above the transition (approximately 10 CMC)) was “a few hours”. Also, the “duration for which the double emulsion is retained” value in series [4] (SDS concentration below the transition (approximately 10 CMC)) is “more than one month”. For the same molecule, the “concentration at which the double emulsion is converted into a direct emulsion (transition)” value in series [4] (freshly prepared double emulsion, NaCl 0.1 mol/l internal phase, Span 80 2%) was “approximately 10 CMC”.
For `CCCCCCCC/C=C\CCCCCCCC(=O)OCCOCC(OCCO)C1OCC(OCCO)C1OCCO` (stereo not shown) [Tween 80], the “limit concentration for transfer of the internal water droplets” value in series [5] was “approximately 200 CMC”.
